{"source": "patent US12337010B2", "about": "“Compositions and methods of treatment using nicotinamide mononucleotide” (Washington University, priority 2017, dated 2025)", "target": "T1, Slc12a8 (Mus musculus, UniProt Q8VI23)", "T1 construct": "NIH3T3 cells were transfected with 5 μg of pCXN2 carrying the full-length Slc12a8 cDNA (Slc12a8-OE); expressed in transfected cells", "T1 sequence (Q8VI23 1-705)": "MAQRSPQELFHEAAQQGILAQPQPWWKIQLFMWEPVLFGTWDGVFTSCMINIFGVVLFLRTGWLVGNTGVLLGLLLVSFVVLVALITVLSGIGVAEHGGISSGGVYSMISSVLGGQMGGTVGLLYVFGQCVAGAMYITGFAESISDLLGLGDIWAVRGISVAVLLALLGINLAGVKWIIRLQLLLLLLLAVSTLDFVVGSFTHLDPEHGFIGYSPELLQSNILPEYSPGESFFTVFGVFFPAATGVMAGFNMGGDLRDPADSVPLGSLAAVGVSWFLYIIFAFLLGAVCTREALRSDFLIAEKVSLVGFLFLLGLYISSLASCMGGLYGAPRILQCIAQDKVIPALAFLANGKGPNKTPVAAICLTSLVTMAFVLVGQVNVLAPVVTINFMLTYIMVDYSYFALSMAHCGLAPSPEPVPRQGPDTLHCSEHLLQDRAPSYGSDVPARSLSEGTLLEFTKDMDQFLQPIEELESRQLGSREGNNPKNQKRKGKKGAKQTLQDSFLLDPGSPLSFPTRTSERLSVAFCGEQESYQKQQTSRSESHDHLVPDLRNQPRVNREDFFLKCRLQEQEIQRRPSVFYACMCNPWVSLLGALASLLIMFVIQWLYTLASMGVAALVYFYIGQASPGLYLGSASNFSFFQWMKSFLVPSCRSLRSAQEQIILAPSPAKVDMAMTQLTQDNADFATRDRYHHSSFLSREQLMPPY", "assay": "3H-NMN uptake and displacement in Slc12a8-OE proteoliposomes", "assay_type": "biochemical", "procedure": "Proteoliposome experiments. Proteoliposome preparation was carried out as previously described (Bruzzone, S., et al., FASEB J., 15, 10-12, 2001). Briefly, 2×10^7 control or Slc12a8-OE NIH3T3 cells were resuspended in 1 ml of lysis buffer (10 mM Tris-HCl, pH 8.3, 150 mM NaCl, 0.3 M sucrose, protease inhibitor cocktail) and disrupted using a homogenizer. The lysate was centrifuged for 10 min at 3,000×g, and the supernatant was collected and centrifuged for 15 min at 100,000×g. The membrane proteins were solubilized with buffer A (10 mM Tris-HCl, pH 8.3, containing 150 mM NaCl and 0.5% n-octyl β-glucopyranoside). Separately, total lipids were extracted from hemoglobin-free erythrocyte membranes (ghosts) as described previously (Franco, L., et al., FASEB J., 12, 1507-1520, 1998). Total lipids from human erythrocyte membranes (3 mg) were dried and resuspended with 600 μl of solubilized membrane proteins (at approximately 0.7 mg/ml protein concentration). The resulting emulsions were sonicated in ice for 1 min and dialyzed against 5 liters of buffer A without n-octyl-β-glucopyranoside (dialysis buffer) for 24 h at 4° C. Proteoliposomes were recovered, centrifuged for 15 min at 100,000×g, resuspended in 900 μl dialysis buffer and passed 5 times through a 30-gauge needle.\nTo examine the Na+-dependency of Slc12a8, NaCl was replaced with 150 mM LiCl. All steps were carried out at 4° C. Proteoliposomes (30 μl in triplicate for each condition) were incubated for 2, 5 or 10 min at 25° C. in the presence of […] 3H-β-NMN (specific activity, 9.1 Ci/mmole) with or without label-free nucleotides (NMN, NR, NAD, AMP; NAM or NaMN). At the end of incubations, samples were filtered on a glass fiber paper. Filters were washed with 3 ml of dialysis buffer, dried, and counted for radioactivity.\nProteoliposomes were produced by combining the membrane fractions of Slc12a8-OE or control NIH3T3 cells with the phospholipid bilayers derived from deproteinized erythrocyte plasma membrane as described supra using 22 nM, ^3H-NMN at 25° C. in proteoliposomes produced from plasma membrane fractions of Slc12a8-OE and control NIH3T3 cells in transport buffer (n=3; analyzed by one-way ANOVA with Sidak's multiple comparisons test).\nIn order to determine substrate specificity of Slc12a8, these Slc12a8-OE proteoliposomes were used for displacement experiments with ^3H-NMN and various cold NAD+-related compounds. Uptake of ^3H-NMN (150 nM, 25° C.) was measured at 2 min in Slc12a8-OE proteoliposomes in the presence of 150 μM competing cold compounds (NMN, NR, NAD, AMP, NaMN, and nicotinamide) in transport buffer (n=3, analyzed by ANOVA with Dunnett's test). […] Data are shown as percentages of ^3H-NMN uptake (n=3; IC50 was calculated by non-linear regression analysis).\nIn these experiments, the sodium ion dependency of Slc12a8 for NMN transport was evaluated using the proteoliposome system.", "data": [{"smiles": "NC(=O)c1ccc[n+]([C@@H]2O[C@H](COP(=O)([O-])O)[C@@H](O)[C@H]2O)c1", "note": "[NMN, nicotinamide mononucleotide]", "values": [{"measurement": "displacement of 3H-NMN", "setting": "150 μM cold compound, 150 nM 3H-NMN, 25° C., 2 min", "value": "complete displacement"}, {"measurement": "IC50", "setting": "Slc12a8-OE proteoliposome system", "value": "22.8 ± 3.6", "unit": "µM"}]}]}
